Results on eight compounds are retold here after US12024707B2, “Methods and compositions for modulating lncRNAs and methods of treatment based on lncRNA expression” (Washington University, priority 2020, dated 2024).

In data set [1] the test system is TOP2α promoter. Nature of the data set: Chromatin immunoprecipitation (ChIP) qPCR at TOP2α promoter, LoVo. The data set is classed as cell-based. The following applies: LoVo cells. As for the experimental part:
ChIP qPCR assays were conducted by first sonicating five million cells in SDS lysis buffer (1% SDS, 500 mM EDTA, 50 mM Tris-HCl pH 8). […] The next day Dynabeads Protein G (Invitrogen) were added to the antibody lysate mixture and rotated for 1 h. Bead/lysate mixture was then washed once with low salt wash buffer (0.1% SDS, 1% Triton X-100, 2 mM EDTA, 20 mM Tris-HCl pH 8, 150 mM NaCl), then high salt buffer (0.1% SDS, 1% Triton X-100, 2 mM EDTA, 20 mM Tris-HCl pH 8, 500 mM NaCl), lithium chloride wash buffer (0.25 M lithium chloride, 1% NP40, 1% sodium deoxycholate, 1 mM EDTA, 10 mM Tris-HCl pH 8), and finally two washes with Tris-HCl EDTA buffer (10 mM Tris-HCl pH 8, 1 mM EDTA). DNA was eluted by incubating beads for 30 min at room temperature with SDS elution buffer (1% SDS, 0.1 M sodium bicarbonate), followed by 1.25 M NaCl and 2.5 mg/mL RNAse A at 95° for 15 min shaking followed by addition of proteinase K buffer (1 μL 10 mg/mL proteinase K, 5 μL […], 10 μL 1 M Tris pH 7.5) shaking at 60° for 15 min. DNA was then isolated using phenol:chloroform:isoamyl alcohol extraction following the general protocol as mentioned above. […] The % input calculations were determined by comparing CT values from input DNA and ChIP DNA for the TOP2A target promoter region using the following equation: % Input=% of starting input fraction×2^[CT(input)−CT(Chlp)] […]

The subject of data set [2] is LoVo RAMS11 CRISPR KO cells. Nature of the data set: Individual drug IC50 / cell viability assays in RAMS11 CRISPR KO cells. The data set is classed as cell-based. The following applies: for effect of cell viability: LoVo RAMS11 CRISPR KO cells. As for the experimental part:
The NIH approved oncology library of 119 drugs (AOD6 plate 4825-1 and AOD6 plate 4826) was received from the NIH National Cancer Institute DTP Developmental Therapeutics Program. Drugs were diluted in DMSO to 1 mM and the well assignments were rearranged so drugs were confined to the inner 60 wells of 96-well plates. HT29 RAMS11 overexpressing Clone1 and Clone2 cell lines were seeded at 5000 cells per well in a 96-well plate. The next day serial diluted drug was added to pre-seeded plates in media containing 1% DMSO vehicle, using a Robbins Hydra 96 micro dispenser. Two 96-well plates of cells were used as vehicle controls. The plates were incubated for 3 days. Percent viability was scored by incubating cells for 3 h with resazurin sodium (0.023 mg/mL, Sigma R7017). The reaction was stopped by the addition of SDS (1% final concentration). Fluorescence Ex/Em 540/590 was read in a Biotek Synergy H1 plate reader (Winooski, VT). The fluorescence values for the vehicle plates were averaged and percent viability was determined by the formula: Percent viability=[…]/(average vehicle−average resazurin in media blank)×100. We removed drugs that were undetectable, or out of range, by resazurin assay, leaving 118 drugs to assess in the study (TABLE 3). Values with more than a 1.5-fold change in both RAMS11 Clone1 and Clone2 overexpressing cell lines were used to determine significance. Individual drug IC50 assays were done in a similar manner as described above with CRISPR KO cells. Assays were repeated more than three times.

The test system of data set [3] is HT29 RAMS11 overexpressing cells. The experiment in a line: High-throughput viability assay (resazurin), 119 FDA-approved anticancer drugs, RAMS11 overexpressing cells (Clone1, Clone2). The conditions noted are these: for Viability Fold Change: 72 h, vs empty vector control; for increase in drug resistance in HT29 RAMS11 overexpressing cells: topoisomerase inhibitors, vs empty vector cells; for effect of cell viability: HT29 RAMS11 overexpressing cells. A general note: The colour change of resazurin is a common sign of viable cells or microbes.

In data set [4] the test system is LoVo cells. The class given is cell-based. An excerpt:
(§1) Exiqon's locked nucleic acid (LNA) GapmeRs antisense oligonucleotides (ASOs) were used. They contain a central stretch (gap) of monomers flanked by blocks of LNA modified nucleotides that (i) increase the target affinity and nuclease resistance of the oligo and (ii) the gap activates RNase H cleavage of the target RNA upon binding. The LNATM oligonucleotides can be designed for any region of the target RNA sequence. In addition, the design flexibility afforded by LNATM means that it is possible to design multiple LNATM antisense oligonucleotides to the same target sequence, which serve as useful experimental controls. […] NO: 41) and […] NO: 42).

In data set [5] the test system is RAMS11. The experiment in a line: RAMS11 knockdown by ASOs, qPCR. The class given is cell-based. The following applies: in vivo optimized LNA GapmeR ASOs.
Text: as §1, with “42). Total RNA was isolated for each CRC cell line using Takara Bio NucleoSpin RNA (Takara, Mountain View, CA). Total RNA was then transcribed to cDNA with SuperScript Ill First strand cDNA system (Invitrogen) and quantified using Fast Sybr Green Master Mix (Invitrogen) as per the manufacturer's protocol. Primer sequences are available in TABLE 5.” for “42).”
(Real-time PCR tracks product formation cycle by cycle.)

Data set [6] concerns SW620 cells with silenced RAMS11. The experiment in a line: Drug IC50 / cell viability assays in cells with transient silencing of RAMS11.
For data set [7], the system named is RAMS11-overexpressing (RAMS11) HT29 cells. The experiment in a line: Tail vein lung metastasis model, 5FU treatment, BLI imaging, RAMS11-overexpressing cells. The class given is in vivo, NOD scid mice. The conditions noted are these: RAMS11 cell-injected mice, 50 mg/kg 5FU. As to the method: (§2) To determine if cells with high RAMS11 expression promote resistance to fluorouracil (5FU) treatment, 9-week-old female NOD scid mice were injected with 1 e6 wildtype (WT) or RAMS11-overexpressing (RAMS11) HT29 cells (with GFP-luciferase incorporated) via the tail vein, a common model of lung metastasis^13. Seventy-two hours after tumor cell injection mice were subcutaneously treated with vehicle (PBS) or 50 mg/kg 5FU and imaged weekly. […] Further, high expression of RAMS11 promoted resistance to treatment with 5FU.

In data set [8] the test system is wildtype (WT) HT29 cells. The experiment in a line: Tail vein lung metastasis model, 5FU treatment, BLI imaging, wildtype cells. The class given is in vivo, NOD scid mice. The conditions noted are these: WT cell-injected mice, 50 mg/kg 5FU, Week 3. As to the method:
as §2

Setting [9] is: LoVo RAMS11 CRISPR KO vs wild-type treated cells, 0.5 μM doxorubicin or 0.7 μM epirubicin.
[10] abbreviates: OE1 (RAMS11 overexpression clone 1), 0.1 uM drug.
[11] abbreviates: OE1 (RAMS11 overexpression clone 1), 1 uM drug.
Setting [12] is: OE1 (RAMS11 overexpression clone 1), 10 uM drug.
Where [13] appears, read: OE2 (RAMS11 overexpression clone 2), 0.1 uM drug.
The mark [14] stands for this setting: OE2 (RAMS11 overexpression clone 2), 1 uM drug.
The mark [15] stands for this setting: OE2 (RAMS11 overexpression clone 2), 10 uM drug.
The mark [16] stands for this setting: SW620, RAMS11 siRNA1 relative to scrambled control.
The mark [17] stands for this setting: SW620, RAMS11 siRNA2 relative to scrambled control.

Counter-ions that a name gives are not always drawn. Some results are limits rather than exact numbers.

For “CBX4 siRNA: custom silencer select siRNA targeting CBX4, SEQ ID NO: 35 and 36 (chain 1 UAUGGGUUCAUCCAGGUCUGA; chain 2 AGACCUGGAUGAACCCAUATT; chemistry not given here)”, in data set [1], the “H3K4me3 at the TOP2α promoter” value is “decrease” and the “decrease in CBX4 occupancy at the TOP2α promoter” value is 78%.
As for `COc1cccc2c1C(=O)c1c(O)c3c(c(O)c1C2=O)C[C@@](O)(C(=O)CO)C[C@@H]3O[C@H]1C[C@H](N)[C@H](O)[C@H](C)O1` [doxorubicin HCl, reference compound], the “increase in drug sensitivity” value in data set [2] (setting [9]) was determined as 1.5 fold. The “Viability Fold Change” value is 1.113 in data set [3] (setting [10]); 1.973 in data set [3] (setting [11]); 2.438 in data set [3] (setting [12]); 1.165 in data set [3] (setting [13]); 1.939 in data set [3] (setting [14]); 2.403 in data set [3] (setting [15]). The “increase in drug resistance in HT29 RAMS11 overexpressing cells” value in data set [3] was “at least a two-fold increase in drug resistance”.
As to `COc1cccc2c1C(=O)c1c(O)c3c(c(O)c1C2=O)C[C@@](O)(C(=O)CO)C[C@@H]3O[C@H]1C[C@H](N)[C@@H](O)[C@H](C)O1` [epirubicin HCl, reference compound], in data set [2] (setting [9]), the “increase in drug sensitivity” value was 1.5 fold. In addition, the “increase in drug resistance in HT29 RAMS11 overexpressing cells” value in data set [3] is “at least a two-fold increase in drug resistance”.
“ASO #2: LNA GapmeR antisense oligonucleotide against RAMS11: AGAACTGCTAAAAGTG (SEQ ID NO: 42) (LNA gapmer, pattern not given here)”: the cell viability result in data set [4] is listed as “do not alter cell viability”. Moreover, in data set [5], the RAMS11 knockdown entry is given as “most potent”.
For `O=C1[O][Pt]2([NH][C@@H]3CCCC[C@H]3[NH]2)[O]C1=O` [oxaliplatin, reference compound], the “effect of cell viability” value in data set [2] and in data set [3] was “did not see a significant effect” in each case. Also, in data set [6] (SW620 cells with silenced RAMS11), the “effect of cellular viability” value is listed as “did not have a significant effect”. The “Viability Fold Change” value in data set [3] (setting [10]) amounted to 0.9127; in data set [3] (setting [11]) it was 0.9881; in data set [3] (setting [12]) it was 1.33; in data set [3] (setting [13]), 0.9671; in data set [3] (setting [14]), 1.102; in data set [3] (setting [15]) it was 1.427.
Take “ASO #1: LNA GapmeR antisense oligonucleotide against RAMS11: CAACTTCCAGCAAGAT (SEQ ID NO: 41) (LNA gapmer, pattern not given here)”: the cell viability result in data set [4] is recorded as “do not alter cell viability”. Besides, the RAMS11 knockdown result in data set [5] is reported as “most potent”.
As to `O=c1[nH]cc(F)c(=O)[nH]1` [5-FU, fluorouracil, reference compound], the “increase in drug sensitivity” value in data set [2] (LoVo RAMS11 CRISPR1 compared with wild-type cells) is listed as 1.7 fold; in data set [2] (LoVo RAMS11 CRISPR2 compared with wild-type cells) it was 5.8 fold; in data set [6] (setting [16]), above 1.53 fold; in data set [6] (setting [17]), above 1.59 fold. Besides, the “change between vehicle and 5FU-treated mice, in vivo and ex vivo lung BLI” value in data set [7] is “no significant change”. Further, the “decrease in ex vivo BLI of lung tissue” value in data set [8] was 55%. Further, the “Viability Fold Change” value was 0.9856 in data set [3] (setting [10]); 0.9553 in data set [3] (setting [11]); 0.9891 in data set [3] (setting [12]); 0.9406 in data set [3] (setting [13]); 0.9417 in data set [3] (setting [14]); 1.021 in data set [3] (setting [15]).
Turning to `CCc1c2c(nc3ccc(OC(=O)N4CCC(N5CCCCC5)CC4)cc13)-c1cc3c(c(=O)n1C2)COC(=O)[C@]3(O)CC` [irinotecan], the “effect of cell viability” value in data set [2] and in data set [3] was “did not see a significant effect” in each case. The “increase in drug sensitivity” value in data set [6] (setting [16]) is above 3.17 fold; in data set [6] (setting [17]), above 11.8 fold.
